Laboratory results from patent publication US12565517B2, “Cyclic peptide having CTLA-4 inhibitory activity and use thereof” (GeneFrontier Corporation, priority 2019, dated 2026).
Bridges are numbered along the chain shown (N, C = ends). Where no end group is shown, it is not given here.

Assays:
CTLA-4 [1] = biological target: T1, CTLA-4 (Homo sapiens, UniProt P16410); experiment: Evaluation of binding after Affinity Maturation selection by ELISA (S/N ratio, Table 5); settings: for ELISA MBP-fusion Orencia (absorbance at 450 nm): MBP-fused cyclic peptide, Orencia wells; for ELISA MBP-fusion S/N(SA): ratio of Orencia signal to SA signal, binding = S/N not less than 2
T1 construct: IgG1 Fc (own knowledge: Orencia = abatacept, CTLA4-Ig)
Experimental: The basic operation of ribosome display was performed in the same manner as described above. Detailed experimental conditions for Affinity Maturation are indicated below. 2 μL of Nanolink streptavidin magnetic beads (SoluLink) were used as magnetic beads to immobilize the antigen, and 1 mL of CTLA-4 protein solution (1 μM) was used as a wash solution. The amount of biotinylated CTLA-4 immobilized on the magnetic beads was 10 pmol in the 1st round, 2 pmol in the 2nd round, and 1 pmol in the 3rd round, respectively. The washing period was 2 hours for the 1st round, 19 hours for the 2nd round, and 67 hours for the 3rd round. The number of wash cycle was one time (2 hours) in the 1st round, two times (about every 10 hours) in the […], and six times (about every 10 hours) in the 3rd round. After each round of RT-PCR, Error-Prone PCR was performed in the same manner as described above.
(§1) After each round of Affinity Maturation, the cyclic peptide genes were recovered and subcloned into pET-Mal vector (FIG. 2) in the same manner as described above to perform base sequence analysis. For the 94 single colonies analyzed for sequence, E. coli transformants were inoculated into 100 μL of 2×YT medium containing ampicillin (final concentration 50 μg/mL), incubated at 37° C. for 3-5 hours (OD600=0.5-0.8), then added with IPTG (final concentration 0.5 mM) and incubated at 25° C. overnight. 10 μL of E. coli cultured medium was added with 90 μL of PBS and 40 μL of lysis reagent (20 μL BugBuster Protein Extraction Reagent (Novagen), 20 μL Lysozyme solution 2.5 mg/mL) to lyse E. coli cells for 1 hour at room temperature. The cell lysate was added with 40 μL of 12.5% skim milk solution (TBST) and blocked for 1 hour at room temperature. In parallel, antigen protein was immobilized overnight at 4° C. in 384-well plates at 100 ng/20 μL per well, and each well was washed twice with 100 μL/well of TBST, added with 100 μL/well of 5% skim milk solution (TBST) for blocking for 1 hour at room temperature, and washed twice with 100 μL/well of TBST to obtain antigen-immobilized plates. 20 μL/well of blocking-treated E. coli extract was added to the antigen-immobilized plates and gently stirred at room temperature using a plate mixer. After 1 hour, the plates were washed 5 times with 100 μL/well of TBST, 20 μL/well of anti-FLAG M2-HRP conjugate (1:2000 dilution, Sigma) was added and gently stirred on a plate mixer for 1 hour at room temperature. The plates were washed 5 times with 100 μL/well of TBST, and binding of cyclic peptides to the antigen was detected by 20 μL/well of chromogenic substrate (0.4 mg/mL 3,3′,5,5′-Tetramethyl-benzidine, 0.01% hydrogen peroxide). After 15 minutes of reaction at room temperature, the reaction was stopped with 20 μL/well of 2N HCl, and absorbance at 450 nm was measured using a plate reader (infinite F200: TECAN) (Table 5).
T1 sequence (P16410 with tags, fused parts or gaps limits assumed): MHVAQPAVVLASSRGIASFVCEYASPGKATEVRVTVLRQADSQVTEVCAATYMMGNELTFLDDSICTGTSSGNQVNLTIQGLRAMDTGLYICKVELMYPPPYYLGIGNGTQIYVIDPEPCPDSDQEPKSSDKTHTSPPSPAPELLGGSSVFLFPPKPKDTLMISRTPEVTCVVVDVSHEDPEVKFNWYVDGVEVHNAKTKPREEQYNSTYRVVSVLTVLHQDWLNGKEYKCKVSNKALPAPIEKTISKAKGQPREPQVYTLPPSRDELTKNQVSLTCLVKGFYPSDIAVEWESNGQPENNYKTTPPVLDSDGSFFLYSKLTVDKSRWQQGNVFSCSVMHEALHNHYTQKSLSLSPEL

CTLA-4 [2] = biological target: T2, CTLA-4 (Homo sapiens, UniProt P16410); experiment: Affinity measurement of CTLA-4 binding clones after Affinity Maturation (EC50 by ELISA, Table 6)
T2 sequence (P16410 36-223): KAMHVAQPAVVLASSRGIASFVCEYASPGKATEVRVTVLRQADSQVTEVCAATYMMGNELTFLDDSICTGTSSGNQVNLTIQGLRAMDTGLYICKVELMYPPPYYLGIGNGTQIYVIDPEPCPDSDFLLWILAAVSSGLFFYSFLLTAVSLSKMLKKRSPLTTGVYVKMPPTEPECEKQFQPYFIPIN
Experimental: For each of the CTLA-4 binding clones obtained by Affinity Maturation, purified N-terminal MBP fusion protein solution (400 μg/mL) was prepared and samples serially 2-fold diluted with PBS were prepared. CTLA-4 was immobilized overnight at 4° C. in 384-well plates at 100 ng/20 μL per well, and each well was washed twice with 100 μL/well of TBST, added with 100 μL/well of 5% skim milk solution (TBST) for blocking for 1 hour at room temperature, and washed twice with 100 μL/well of TBST to obtain antigen-immobilized plates. 20 μL/well of serially-diluted N-terminal MBP fusion protein solution was added to the antigen-immobilized plates and gently stirred at room temperature using a plate mixer. After 1 hour, the plates were washed 5 times with 100 μL/well of TBST, 20 μL/well of anti-FLAG M2-HRP conjugate (1:2000 dilution, Sigma) was added and gently stirred on a plate mixer for 1 hour at room temperature. Further, the plates were washed 5 times with 100 μL/well of TBST, and binding of N-terminal MBP fusion proteins to the antigen was detected by 20 μL/well of chromogenic substrate (0.4 mg/mL 3,3′,5,5′-Tetramethyl-benzidine, 0.01% hydrogen peroxide). After 15 minutes of reaction at room temperature, the reaction was stopped with 20 μL/well of 2N HCl, and absorbance at 450 nm was measured using a plate reader (infinite F200: TECAN). The graph was plotted with the vertical axis as the absorbance of ELISA and the horizontal axis as the concentration of N-terminal MBP fusion protein of the CTLA4-binding clones (FIG. 5), and the EC50 was calculated from the obtained binding curve (Table 6).

[3] = biological target: T3, binding of CTLA-4 to CD80 (Homo sapiens, UniProt P16410); experiment: CTLA4:B7-1[Biotinylated] Inhibitor Screening Assay Kit (IC50 measurement); format: biochemical
T3 construct: purchased BPS Biosciences
T3 sequence (P16410 37-162 limits assumed): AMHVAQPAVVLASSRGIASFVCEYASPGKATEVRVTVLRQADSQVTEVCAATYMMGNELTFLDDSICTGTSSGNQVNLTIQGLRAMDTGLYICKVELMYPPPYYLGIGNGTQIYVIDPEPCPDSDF
Excerpt: IC50 can be determined by using, for example, competitive ELISA, surface plasmon resonance (BIAcore (trademark)) analysis or the like. IC50 value for the cyclic peptide of the present invention with respect to its inhibition of binding between human CTLA-4 and human CD80 is preferably measured by CTLA4:B7-1 [Biotinylated] Inhibitor Screening Assay Kit (BPS Bioscience) according to the Example below.
Among the clones obtained in the Affinity Maturation selection experiment, clone #19 ([…]) (SEQ ID NO: 22), which has high affinity to CTLA-4 in EC50 measurement, was measured for its activity to inhibit binding of CTLA-4 to CD80. The measurement of inhibitory activity was performed using the CTLA4:B7-1[Biotinylated] Inhibitor Screening Assay Kit (BPS Biosciences). The experiment was performed according to the standard protocol attached to the kit.
In addition, peptides with glycine added to the N-terminus (Gly-clone #19: […] (SEQ ID NO: 26)/Gly-H12SSI-Ctla4-3-02: […] (SEQ ID NO: 25)) were chemically synthesized for the measurement of inhibitory activity. Inhibitory activity was measured using the CTLA4:B7-1 [Biotinylated] Inhibitor Screening Assay Kit (BPS Biosciences) as described above.

CTLA-4 [4] = biological target: T2, CTLA-4; experiment: Affinity measurement of synthetic biotinylated peptides by BLItz system (peptide on SA sensor chip); format: binding; settings: synthetic Biotin-PEG4-Lys peptide immobilized, BLItz
Experimental: Affinity for CTLA-4 was measured using the BLItz system (forte Bio). All operations were performed according to the instruction manual of the BLItz system. The biotinylated peptides were immobilized on the SA sensor chip via streptavidin.

SA = SA (Streptomyces avidinii, UniProt P22629); experiment: ELISA background signal of MBP-fused cyclic peptides on SA wells (Table 5); format: binding; settings: MBP-fused cyclic peptide
Experimental: as §1
An Error-Prone Library was prepared based on H12SSI-Ctla4-3-02, and Affinity Maturation selection experiments were performed. […]

CTLA-4 [5] = biological target: T2, CTLA-4; experiment: Alanine scanning of clone #10, binding evaluated by ELISA; settings: mutants of clone #10
Experimental: After each round of Affinity Maturation, the cyclic peptide genes were recovered and subcloned into pET-Mal vector (FIG. 2) in the same manner as described above to perform base sequence analysis. For the 94 single colonies analyzed for sequence, E. coli transformants were inoculated into 100 μL of 2×YT medium containing ampicillin (final concentration 50 μg/mL), incubated at 37° C. for 3-5 hours (OD600=0.5-0.8), then added with IPTG (final concentration 0.5 mM) and incubated at 25° C. overnight. […] The plates were washed 5 times with 100 μL/well of TBST, and binding of cyclic peptides to the antigen was detected by 20 μL/well of chromogenic substrate (0.4 mg/mL 3,3′,5,5′-Tetramethyl-benzidine, 0.01% hydrogen peroxide). After 15 minutes of reaction at room temperature, the reaction was stopped with 20 μL/well of 2N HCl, and absorbance at 450 nm was measured using a plate reader (infinite F200: TECAN) (Table 5).
Using the CTLA-4 binding clone #10 ([…]) (SEQ ID NO: 27), which had high affinity, as the original clone, a series of oligo DNAs encoding mutants in which any one amino acid residue except cysteine was sequentially replaced with alanine were synthesized and each oligo DNA was subcloned into pET-Mal vector (FIG. 2), and the binding activity of the alanine substitution mutants to CTLA-4 was evaluated by ELISA as described above.

[6] = biological target: T4, CTLA-4-Fc (Recombinant Human CTLA4-Fc chimera) versus Human Fc (Homo sapiens, UniProt P16410); experiment: Ribosome display pull down assay of enriched clones; format: binding; settings: CTLA-4 Fc versus Human Fc
T4 construct: purchased R&D systems
T4 sequence (P16410 with tags, fused parts or gaps limits assumed): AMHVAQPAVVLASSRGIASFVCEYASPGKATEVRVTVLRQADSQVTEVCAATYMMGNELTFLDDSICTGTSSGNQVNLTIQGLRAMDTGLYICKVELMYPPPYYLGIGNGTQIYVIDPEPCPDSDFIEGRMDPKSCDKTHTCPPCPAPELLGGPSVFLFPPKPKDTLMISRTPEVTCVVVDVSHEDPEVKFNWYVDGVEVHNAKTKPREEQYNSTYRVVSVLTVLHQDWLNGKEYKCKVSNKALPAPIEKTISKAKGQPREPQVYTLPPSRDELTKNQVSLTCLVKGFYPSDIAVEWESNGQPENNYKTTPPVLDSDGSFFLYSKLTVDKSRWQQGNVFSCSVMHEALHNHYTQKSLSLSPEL
Experimental: (§2) CTLA-4 protein (Recombinant Human CTLA4-Fc chimera: R&D systems) was biotinylated according to the standard protocol for EZ-Link NHS-PEO12-Biotin (PIERCE). Biotinylation of CTLA-4 protein was confirmed mobility shift of the band in SDS-PAGE. The concentration of biotinylated CTLA-4 protein was measured by using BCA Protein Assay Kit (PIERCE)
Dynabeads MyOne Streptavidin T1 magnetic beads (100 μL slurry, Invitrogen) pre-blocked overnight with 5% SuperBlock at 4° C. was trapped with MagneSphere Magnetic Separation Stand (Promega) and washed twice with 500 μL of wash buffer solution. 100 pmol of biotinylated antigen protein was added and immobilized on the magnetic beads at 4° C. After 60 min, the magnetic beads were trapped with MagneSphere Magnetic Separation Stand (Promega) and washed 3 times with 500 μL of wash buffer solution. The recovered magnetic beads were added with post-translation reaction solution containing ribosome display complexes (peptide-ribosome-mRNA complexes) and stirred with rotation at 4° C. for 1 hr. A supernatant was discarded by MagneSphere Magnetic Separation Stand (Promega), and the recover magnetic beads were added with 1 mL of wash buffer solution and stirred with rotation at 4° C. for 5 min. […] A part of purified mRNA was reacted with RNA-direct SYBR Green Realtime PCR Master Mix (TOYOBO) and quantified by using Light Cycler 480 (Roche).

[7] = biological target: T5, CTLA-4 protein (Recombinant Human CTLA4-Fc chimera) (Homo sapiens, UniProt P16410); experiment: Affinity measurement of MBP fusion clone by BLItz system (biotinylated CTLA-4 on SA sensor chip); format: binding
T5 construct: purchased R&D systems
Experimental: as §2
E. coli transformants were inoculated into 200 mL of 2×YT medium containing ampicillin (final concentration 50 μg/mL), incubated at 37° C. for 3-5 hours (OD600=0.5-0.8), and then added with IPTG (final concentration 0.5 mM) and incubated at 25° C. overnight. The grown E. coli cells were collected by centrifugation, resuspended in 60 mL of lysis buffer (20 mM Tris HCl pH 7.5, 500 mM NaCl), and disrupted by a sonicator (Bioruptor UCD-250). The disrupted cell suspension was centrifuged, the supernatant was collected, filtered through a 0.22 μm filter, and subjected to affinity purification by MBPTrap (GE Healthcare). The purified protein solution was subjected to a buffer exchange into PBS by a dialysis membrane. Purity was confirmed by SDS-PAGE and protein concentration was determined using the BCA Protein Assay Kit (PIERCE).
The affinity of the purified CTLA-4 binding clone (H12SSI-Ctla4-3-02) to CTLA-4 was measured using BLItz system (forte Bio). All operations were performed according to the instruction manual of the BLItz system. The biotinylated CTLA-4 protein was immobilized on the SA sensor chip via streptavidin.

binding activity of alanine substitution mutant to CTLA-4 (CTLA-4 [5]) | Substance | ELISA MBP-fusion Orencia (absorbance at 450 nm) (CTLA-4 [1]) | ELISA MBP-fusion S/N(SA) (CTLA-4 [1]) | CTLA-4 affinity improved over the original clone (CTLA-4 [2]; EC50 by ELISA, MBP fusion cyclic peptides) | EC50 (CTLA-4 [2]; N-terminal MBP fusion protein of the CTLA-4 binding clone, EC50 calculated from ELISA binding curve) [nM] | IC50 ([3]; MBP fusion protein) [nM] | IC50 ([3]; synthesized peptide with N-terminal glycine) [nM] | ka (CTLA-4 [4]) [M⁻¹ s⁻¹] | kd (CTLA-4 [4]) [s⁻¹] | Kd (CTLA-4 [4]; unit inferred) [nM] | ELISA MBP-fusion SA (absorbance at 450 nm) (SA) | binding specificity in ribosome display pull down assay [6] | Kd [7] [nM] | ka [7] [M⁻¹ s⁻¹] | kd [7] [s⁻¹]
– | CMHPFLPIVSHHFCER [#19] | 1.0658 | 18.0 | about 50 fold | 75 | 1360 | 11500 | 208000 | 0.0128 | 61.8 | 0.0591 | – | – | – | –
weak binding activity | I7A mutant: alanine substitution mutant of clone #10 with isoleucine at position 7 replaced (CLHPFLPAVSHHFCGR; not fully specified (bridges); cysteine pairing not given here; also: MBP fusion) | – | – | – | – | – | – | – | – | – | – | – | – | – | –
– | CMHPFLLVVSHHFC (disulfide 1-14 (inferred); not fully specified (N-terminus)) [H12SSI-Ctla4-3-02] | 0.2278 | 4.3 | – | – | – | – | – | – | – | 0.0536 | bound specifically to CTLA-4 | 3880 | 3180 | 0.0123
